Results taken from patent US11643395B2, “Derivatives of 4-aminoantipyrine as anti-Alzheimers butyrylcholinesterase inhibitors” (priority 2021, dated 2023).
Entries after “also recorded” stand apart in the source; their conditions may differ. Counter-ions that a name gives are not always drawn.

Columns and labels:
[1] = target: T1, butyrylcholinesterase (BuChE) enzyme (Homo sapiens (Human), UniProt P06276); assay: In-vitro butyryl cholinesterase inhibitory activity (DTNB, 96-well); assay type: biochemical; details: for IC50: read-out: Butyrylcholinesterase Inhibition Activity IC50 ± SEM; for Butyrylcholinesterase inhibition, rating in words: compared with standard galantamine hydrobromide
T1 sequence (P06276 29-602): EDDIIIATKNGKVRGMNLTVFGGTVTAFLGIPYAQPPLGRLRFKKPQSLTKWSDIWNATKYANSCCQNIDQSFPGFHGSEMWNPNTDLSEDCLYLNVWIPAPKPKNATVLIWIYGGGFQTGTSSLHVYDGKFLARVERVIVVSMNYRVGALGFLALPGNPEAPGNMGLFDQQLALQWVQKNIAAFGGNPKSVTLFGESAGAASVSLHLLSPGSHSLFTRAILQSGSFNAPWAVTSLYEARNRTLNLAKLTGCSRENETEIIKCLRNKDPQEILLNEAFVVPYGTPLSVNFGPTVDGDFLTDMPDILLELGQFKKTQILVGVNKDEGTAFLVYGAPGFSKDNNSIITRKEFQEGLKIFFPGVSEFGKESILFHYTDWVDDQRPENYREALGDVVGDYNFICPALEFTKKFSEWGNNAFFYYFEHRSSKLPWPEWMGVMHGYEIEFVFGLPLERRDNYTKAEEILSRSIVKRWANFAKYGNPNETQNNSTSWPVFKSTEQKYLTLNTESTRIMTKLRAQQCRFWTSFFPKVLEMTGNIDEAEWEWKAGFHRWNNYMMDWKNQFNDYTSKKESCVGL
Method: After that 10 μL of pre-prepared butyrylthiocholine chloride (0.5 mM) substrate was added in the dark for 15 minutes, followed by the addition DTNB (0.5 mM), to produce thionitrobenzoate (TNB), whose absorbance range in 412 nm. 5-Thio-2 nitrobenzoate (TNB) (yellow color) anion was produced when thiocholine binds with DTNB which was measured in the form of absorbance in each well. Each compound was evaluated in triplicate at 0.5 mM.
The enzyme inhibitory activity was calculated using the following formula: Percent Inhibition=100−(O.D. of test/O.D. of control)×100
Where test is the enzyme activity with sample, and control is the enzyme activity without sample, and O.D. is optical density.
The IC50 of the compounds was calculated using EZ-Fit Enzyme Kinetic Program (Perrella Scientific Inc., Amhrest, U.S.A.).

[2] = target: T1, butyrylcholinesterase (BuChE) enzyme; assay: Kinetic studies of butyrylcholinesterase inhibition (L-B reciprocal plots); assay type: biochemical; details: four substrate concentrations (0.05, 0.1, 0.2, 0.4 mM); for Ki: read-out: Butyrylcholinesterase Inhibition Activity Ki ± SEM
Method: 0.5 mM concentrations of each inhibitor, as well as control, were examined for their butyrylcholinesterase inhibitory activity using four different substrate concentrations (0.05, 0.1, 0.2, and 0.4 mM).

[3] = butyrylthiocholine chloride substrate, pH 8.0, 25° C.

SMILES	IC50 [1, 3]	Butyrylcholinesterase inhibition, rating in words [1]	Butyrylcholinesterase Inhibition Activity IC50 ± SEM [1, 3]	Type of inhibition of butyrylcholinesterase [2]	Ki [2]
Cc1c(N)c(=O)n(-c2ccccc2)n1C [4-aminoantipyrine, 4-Aminoantipyrine]	69700 ± 400 nM	moderate inhibitor	–	–	–
Cc1c(N(Cc2cccc(Cl)c2)Cc2cccc(Cl)c2)c(=O)n(-c2ccccc2)n1C [Compound 1, 4-(Bis(3-chlorobenzyl)amino)-1,5-dimethyl-2-phenyl-1,2-dihydro-3H-pyrazol-3-one]	100 nM	potent inhibitors	–	–	–
Cc1c(N(Cc2ccccc2Cl)Cc2ccccc2Cl)c(=O)n(-c2ccccc2)n1C [Compound 2, 4-(Bis(2-chlorobenzyl)amino)-1,5-dimethyl-2-phenyl-1,2-dihydro-3H-pyrazol-3-one]	500 nM	potent inhibitors	–	–	–
Cc1c(N(Cc2cccc(I)c2)Cc2cccc(I)c2)c(=O)n(-c2ccccc2)n1C [Compound 3, 4-(Bis(3-iodobenzyl)amino)-1,5-dimethyl-2-phenyl-1,2-dihydro-3H-pyrazol-3-one]	400 nM	potent inhibitors	–	–	–
Cc1c(N(Cc2ccccc2I)Cc2ccccc2I)c(=O)n(-c2ccccc2)n1C [Compound 4, 4-(Bis(2-iodobenzyl)amino)-1,5-dimethyl-2-phenyl-1,2-dihydro-3H-pyrazol-3-one]	–	completely inactive	Not Active	–	–
Cc1c(N(Cc2ccc(I)cc2)Cc2ccc(I)cc2)c(=O)n(-c2ccccc2)n1C [Compound 5, 4-(Bis(4-iodobenzyl)amino)-1,5-dimethyl-2-phenyl-1,2-dihydro-3H-pyrazol-3-one]	2430 nM	potent inhibitors	–	competitive inhibition; also recorded: Competitive Inhibitor	5670 nM
Cc1c(N(Cc2ccccc2Br)Cc2ccccc2Br)c(=O)n(-c2ccccc2)n1C [Compound 6, 4-(Bis(2-bromobenzyl)amino)-1,5-dimethyl-2-phenyl-1,2-dihydro-3H-pyrazol-3-one]	700 nM	potent inhibitors	–	non-competitive type of inhibition; also recorded: Non-competitive Inhibitor	2400 nM
Cc1c(N(Cc2ccc(Br)cc2)Cc2ccc(Br)cc2)c(=O)n(-c2ccccc2)n1C [Compound 7, 4-(Bis(4-bromobenzyl)amino)-1,5-dimethyl-2-phenyl-1,2-dihydro-3H-pyrazol-3-one]	58700 ± 400 nM	moderate inhibitor	–	–	–
Cc1c(N(Cc2cccc(Br)c2)Cc2cccc(Br)c2)c(=O)n(-c2ccccc2)n1C [Compound 8, 4-(Bis(3-bromobenzyl)amino)-1,5-dimethyl-2-phenyl-1,2-dihydro-3H-pyrazol-3-one]	26.2 nM	potent inhibitors	–	–	–
COc1ccc2c3c1O[C@H]1C[C@@H](O)C=C[C@@]31CCN(C)C2 [galantamine hydrobromide, reference compound]	–	–	–	Mixed type Inhibitor	–
